Counter-ions that a name gives are not always drawn.
Each molecule was assayed against human complement factor B (CVF-Bb complex) (Homo sapiens (Human), UniProt P00751) (assay: Human Complement Factor B ELISA Assay). Conditions: not given.
Assay type: biochemical
In short: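 Preformed CVF-Bb complex (3 nM; cobra venom factor with recombinant human factors B and D) preincubated with compound 1 h, RT, in PBS pH 7.4, 10 mM MgCl2, 0.05% CHAPS. Plasma C3 added at 1 μM final for 1 h, then stopped; C3a product measured by ELISA, IC50 from % inhibition.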
In the case of `COc1cc2c(N)nc(N3CCN(C(=O)C[C@@H](N)CC(C)C)C[C@@H]3C)nc2c(F)c1OC` [Example 56, (S)-3-Amino-1-[(S)-4-(4-amino-8-fluoro-6,7-dimethoxy-quinazolin-2-yl)-3-methyl-piperazin-1-yl]-5-methyl-hexan-1-one hydrochloride], the IC50 is reported as 240 nM.

Same assay, conditions: CVF-Bb complex 3 nM, 1 hour preincubation with compound at room temperature, human C3 substrate 1 μM, C3a quantified by ELISA; read-out: Factor B IC50
In the case of `COc1cc2c(N)nc(N3CCN(C(=O)C[C@H](c4ccc(F)cc4)N4CCCCC4)CC3)nc2c(F)c1OC` [Example 99, (R)-1-[4-(4-Amino-8-fluoro-6,7-dimethoxy-quinazolin-2-yl)-piperazin-1-yl]-3-(4-fluoro-phenyl)-3-piperidin-1-yl-propan-1-one], the IC50 is reported as 6 nM. `COCCOc1c(OC)cc2c(N)nc(N3CCN(C(=O)c4cc5cc(Cl)ccc5[nH]4)C[C@@H]3C)nc2c1F` [Example 30, {(S)-4-[4-Amino-8-fluoro-6-methoxy-7-(2-methoxy-ethoxy)-quinazolin-2-yl]-3-methyl-piperazin-1-yl}-(5-chloro-1H-indol-2-yl)-methanone] gave an IC50 of 70 nM. `CCCN[C@H](CC(=O)N1CCN(c2nc(N)c3cc(OC)c(OC)c(F)c3n2)CC1)c1ccc(Cl)s1` [Example 92, (R)-1-(4-(4-amino-8-fluoro-6,7-dimethoxyquinazolin-2-yl)piperazin-1-yl)-3-(5-chlorothiophen-2-yl)-3-(propylamino)propan-1-one] showed an IC50 of 8 nM. In the case of `COC[C@H]1CN(C(=O)/C=C/C2CC2)CCN1c1nc(N)c2cc(OC)c(OC)c(F)c2n1` [Example 3], the IC50 is reported as 2060 nM. Work on `COc1cc2c(N)nc(N3CCN(C(=O)C[C@@H](N)c4ccccc4)CC3)nc2c(F)c1OC` [Example 39, (R)-3-Amino-1-[4-(4-amino-8-fluoro-6,7-dimethoxy-quinazolin-2-yl)-piperazin-1-yl]-3-phenyl-propan-1-one] yielded an IC50 of 230 nM. With `COc1cc2c(N)nc(N3CCN(C(=O)c4cc5cc(C#N)ccc5[nH]4)CC3)nc2c(F)c1OC` [Example 18, 2-[4-(4-Amino-8-fluoro-6,7-dimethoxy-quinazolin-2-yl)-piperazine-1-carbonyl]-1H-indole-5-carbonitrile] the IC50 was 20 nM. `COc1cc2c(N)nc(N3CCN(C(=O)C[C@@H](NC(C)C)c4ccc(C#N)cc4)CC3)nc2c(F)c1OC` [Example 95, (R)-4-(3-(4-(4-amino-8-fluoro-6,7-dimethoxyquinazolin-2-yl)piperazin-1-yl)-1-(isopropylamino)-3-oxopropyl)benzonitrile] was tested, and the IC50 was 3 nM. Molecule `COc1cc2c(N)nc(N3CCN(C(=O)C[C@@H](N)c4cccc(C(F)(F)F)c4)CC3)nc2c(F)c1OC` [Example 54, (R)-3-Amino-1-[4-(4-amino-8-fluoro-6,7-dimethoxy-quinazolin-2-yl)-piperazin-1-yl]-3-(3-trifluoromethyl-phenyl)-propan-1-one] has an IC50 of 260 nM. For `COc1cc2c(N)nc(N3CCN(C(=O)/C=C/C4CCC4)C[C@@H]3C)nc2c(F)c1OC` [Example 6, (E)-1-[(S)-4-(4-Amino-8-fluoro-6,7-dimethoxy-quinazolin-2-yl)-3-methyl-piperazin-1-yl]-3-cyclobutyl-propenone], the IC50 was 190 nM. Molecule `COc1cc2c(N)nc(N3CCN(C(=O)c4cc5cc(C#N)ccc5[nH]4)C[C@@H]3c3ccccc3)nc2c(F)c1OC` [Example 28, 2-[(S)-4-(4-Amino-8-fluoro-6,7-dimethoxy-quinazolin-2-yl)-3-phenyl-piperazine-1-carbonyl]-1H-indole-5-carbonitrile] has an IC50 of 5 nM. `COc1cc2c(N)nc(N3CCN(C(=O)C[C@@H](N)c4ccc(F)cc4)CC3)nc2c(C#N)c1OC` [Example 76, 4-Amino-2-{4-[(R)-3-amino-3-(4-fluoro-phenyl)-propionyl]-piperazin-1-yl}-6,7-dimethoxy-quinazoline-8-carbonitrile] showed an IC50 of 100 nM. Work on `COCCOc1c(OC)cc2c(N)nc(N3CCN(C(=O)/C=C/c4ccc(C#N)cc4)CC3)nc2c1F` [Example 11, 4-((E)-3-{4-[4-Amino-8-fluoro-6-methoxy-7-(2-methoxy-ethoxy)-quinazolin-2-yl]-piperazin-1-yl}-3-oxo-propenyl)-benzonitrile] yielded an IC50 of 230 nM. `COc1cc2c(N)nc(N3[C@H](C)CN(C(=O)C[C@@H](NC(C)C)c4ccc(C#N)cc4)C[C@@H]3C)nc2c(F)c1OC` [Example 97, 4-((R)-3-((3R,5S)-4-(4-amino-8-fluoro-6,7-dimethoxyquinazolin-2-yl)-3,5-dimethylpiperazin-1-yl)-1-(isopropylamino)-3-oxopropyl)benzonitrile] gave an IC50 of 11 nM. For `COc1cc2c(N)nc(N3CCN(C(=O)C[C@@H](NCC(F)(F)F)c4ccc(F)cc4)CC3)nc2c(F)c1OC` [Example 88, (R)-1-[4-(4-Amino-8-fluoro-6,7-dimethoxy-quinazolin-2-yl)-piperazin-1-yl]-3-(4-fluoro-phenyl)-3-(2,2,2-trifluoro-ethylamino)-propan-1-one], the IC50 was 30 nM. `COc1cc2c(N)nc(N3CCN(C(=O)C[C@@H](NCC4(C)COC4)c4ccc(C#N)cc4)CC3)nc2c(F)c1OC` [Example 102] was tested, and the IC50 was 1 nM. In the case of `CC[C@H]1CN(C(=O)C[C@@H]2CCCCN2)CCN1c1nc(N)c2cc(OC)c(OC)c(F)c2n1` [Example 117, 1-[(S)-4-(4-Amino-8-fluoro-6,7-dimethoxy-quinazolin-2-yl)-3-ethyl-piperazin-1-yl]-2-(S)-piperidin-2-yl-ethanone], the IC50 is reported as 780 nM. `COc1cc2c(N)nc(N3CCN(C(=O)C[C@@H]4CCCN4)C[C@@H]3c3ccccc3)nc2c(F)c1OC` [Example 120, 1-[(S)-4-(4-Amino-8-fluoro-6,7-dimethoxy-quinazolin-2-yl)-3-phenyl-piperazin-1-yl]-2-(S)-pyrrolidin-2-yl-ethanone] was tested, and the IC50 was 80 nM. For `COc1cc2c(N)nc(N3CCN(C(=O)CC4NCCc5cc(F)ccc54)CC3)nc2c(F)c1OC` (centres unmarked) [Example 128, 1-[4-(4-Amino-8-fluoro-6,7-dimethoxy-quinazolin-2-yl)-piperazin-1-yl]-2-(6-fluoro-1,2,3,4-tetrahydro-isoquinolin-1-yl)-ethanone], the IC50 was 120 nM. With `COc1cc2c(N)nc(N3C[C@@H](C)N(C(=O)C[C@@H](N)c4ccccc4)C[C@@H]3C)nc2c(F)c1OC` [Example 73, (R)-3-Amino-1-[(2R,5S)-4-(4-amino-8-fluoro-6,7-dimethoxy-quinazolin-2-yl)-2,5-dimethyl-piperazin-1-yl]-3-phenyl-propan-1-one] the IC50 was 60 nM. In the case of `COCCOc1c(OC)cc2c(N)nc(N3CCN(C(=O)C[C@@H](N)c4ccc(C#N)cc4)CC3)nc2c1F` [Example 70, 4-((R)-1-Amino-3-{4-[4-amino-8-fluoro-6-methoxy-7-(2-methoxy-ethoxy)-quinazolin-2-yl]-piperazin-1-yl}-3-oxo-propyl)benzonitrile], the IC50 is reported as 110 nM. `COc1cc2c(N)nc(N3CCN(C(=O)c4cc5cc(O)ccc5[nH]4)CC3)nc2c(F)c1OC` [Example 19, [4-(4-Amino-8-fluoro-6,7-dimethoxy-quinazolin-2-yl)-piperazin-1-yl]-(5-hydroxy-1H-indol-2-yl)-methanone] was tested, and the IC50 was 80 nM. Work on `COc1cc2c(N)nc(N3CCN(C(=O)/C=C/c4ccc(C#N)cc4)CC3)nc2c(F)c1OC` [Example 2, 4-{(E)-3-[4-(4-Amino-8-fluoro-6,7-dimethoxy-quinazolin-2-yl)-piperazin-1-yl]-3-oxo-propenyl}-benzonitrile] yielded an IC50 of 16 nM.
